Data set [1] is described as follows: Pharmacokinetic study of osimertinib in rats after oral administration, with or without ginsenoside Rg3 pretreatment. In kind it is in vivo, Male Sprague-Dawley rats. The protocol:
The rats were randomly divided into two groups (six rats for each group). Osimertinib was dissolved and suspended by 1% carboxymethylcellulose sodium solution. The Rg3 powder in Shenyi capsule was dissolved in saline. In the first period, ginsenoside Rg3 (5 mg/kg) was orally administered to the rats in group I for seven days, and the rats in the other group were orally treated with normal saline for seven days. In the second period, the rats were fasted overnight with free access to water before the experiment. After overnight fasting, ginsenoside Rg3 (5 mg/kg) plus osimertinib (10 mg/kg) was orally administered to the rats in group I, and the rats received oral ginsenoside Rg3 30 min prior to osimertinib at the eighth day. Rats in group II were only orally treated with osimertinib (10 mg/kg) at the eighth day. Blood samples (each 100 μL) were collected via the oculi chorioideae vein at 0.5, 1, 2, 3, 4, 5, 6, 7, 8, 10, 12, 15, and 24 h after treatment in heparinized tubes. The blood samples were immediately centrifuged at 3000 rpm for 10 min. The plasma was separated from blood samples and transferred to clean tubes and immediately stored at −80°C until further analysis. The plasma concentrations of osimertinib were determined according to the aforementioned developed UPLC-MS/MS method.
The pharmacokinetic parameters, including the maximal plasma concentration (Cmax), area under the plasma concentration-time curve (AUC), time for the maximal plasma concentration (Tmax), and mean residence time (MRT), were calculated through noncompartmental analysis by Phoenix WinNonlin (Pharsight Inc., USA, version 1.1) software.

Data set [2] can be described thus: Stability of osimertinib in rat plasma under various storage conditions (QC samples, UPLC-MS/MS). Format: physicochemical. The following applies: for Autosampler stability, RE / Autosampler stability, measured concentration Mean ± SD: processed rat plasma sample, 4°C for 24 h; for Autosampler stability, RE / Autosampler stability, measured concentration Mean ± SD / Short-term stability, RE / Short-term stability, measured concentration Mean ± SD / Freeze-thawing stability, RE / Freeze-thawing stability, measured concentration Mean ± SD / Long-term stability, RE / Long-term stability, measured concentration Mean ± SD: n = 6; for Short-term stability, RE / Short-term stability, measured concentration Mean ± SD: room temperature for 6 h; for Freeze-thawing stability, RE / Freeze-thawing stability, measured concentration Mean ± SD: −80°C for 3 cycles. The protocol: (1) Short-Term Stability. QC samples (low, medium, and high levels) were assessed by analyzing QC samples kept at room temperature for six hours.
(2) Autosampler Stability. QC samples (low, medium, and high levels) were evaluated after the processed QC samples were placed in an autosampler (4°C) for 24 hours.
(3) Freeze-Thaw Stability. QC samples (low, medium, and high levels) were investigated after storage at room temperature for 8 h, followed by three freeze-thaw cycles (thawing at room temperature during 2 h and freezing again at −80°C for at least 12 h).
(4) Long-Term Stability. QC samples (low, medium, and high levels) were determined by analyzing after storage at −80°C for 28 days.

Details of data set [3]: method as in PMID 31371986. As to conditions: rats; cited from earlier work.
Details of data set [4]: method as in PMID 29381826. As to conditions: patients with advanced NSCLC, cited from earlier work.
A further data set has as its system P-gp. Set-up: method as in PMID 31371986. As to conditions: in vitro; cited from earlier work.
The subject of a further data set is BCRP. Set-up: method as in PMID 31371986. As to conditions: in vitro; cited from earlier work.
The subject of the next data set is cytochrome P450 (CYP3A). Also noted: method as in PMID 31371986. As to conditions: preclinical studies; cited from earlier work.
The mark [5] stands for this setting: male, Sprague-Dawley, rat, in vivo, po, 10 mg/kg.
[6] abbreviates: rat plasma, spiked 3 ng/mL, −80°C for 28 days.
Setting [7] is: rat plasma, spiked 30 ng/mL, −80°C for 28 days.
Where [8] appears, read: rat plasma, spiked 350 ng/mL, −80°C for 28 days.

Like-named read-outs stand apart in the source and are kept apart here.

As to `C=CC(=O)Nc1cc(Nc2nccc(-c3cn(C)c4ccccc34)n2)c(OC)cc1N(C)CCN(C)C` [Osimertinib], in data set [1] (setting [5]), the AUC0-t is 2820 ± 1200 ng·h/mL, the apparent clearance CL/F was 330 ± 135 mL/min/kg, the Vz/F was found to be 130 ± 58 L/kg and the half-life is 4.46 ± 0.94 h. The AUC0-t in data set [1] (male, Sprague-Dawley, rat, in vivo, po, 10 mg/kg, AUC0-t) was 2820 ± 1210 ng·h/mL. Further, in data set [1] (male, Sprague-Dawley, rat, in vivo, po, 10 mg/kg, AUC0-∞), the area under the curve AUC(0-inf) amounted to 2900 ± 1210 ng·h/mL. For the same molecule, in data set [1] (male, Sprague-Dawley, rat, in vivo, po, 10 mg/kg, C max), the maximum concentration (Cmax) came to 317 ± 138 ng/mL. Also, the apparent clearance (CL/F) in data set [1] (male, Sprague-Dawley, rat, in vivo, po, 10 mg/kg, CL/F) was 330 mL/min/kg. The MRT last in data set [1] (male, Sprague-Dawley, rat, in vivo, po, 10 mg/kg, MRT0-t) came out at 6.88 ± 0.62 h. In data set [1] (male, Sprague-Dawley, rat, in vivo, po, 10 mg/kg, T max), the Tmax stood at 3.33 ± 0.82 h. Moreover, in data set [1] (male, Sprague-Dawley, rat, in vivo, po, 10 mg/kg, Vz/F), the Vd/F turned out to be 130 ± 58.1 L/kg. In data set [2] (spiked 3 ng/mL), the “Autosampler stability, RE” value is recorded as 0.6% and the “Autosampler stability, measured concentration Mean ± SD” value amounted to 3.02 ± 0.01 ng/mL. Also, in data set [2] (spiked 30 ng/mL), the “Autosampler stability, RE” value is reported as −4.2% and the “Autosampler stability, measured concentration Mean ± SD” value is on record as 28.7 ± 0.8 ng/mL. For the same molecule, in data set [2] (spiked 350 ng/mL), the “Autosampler stability, RE” value turned out to be 2.5% and the “Autosampler stability, measured concentration Mean ± SD” value was 359 ± 26 ng/mL. Moreover, in data set [2] (rat plasma, spiked 3 ng/mL), the “Short-term stability, RE” value came out at 6.8%; the “Short-term stability, measured concentration Mean ± SD” value is reported as 3.20 ± 0.14 ng/mL; the “Freeze-thawing stability, RE” value was 1.0%; the “Freeze-thawing stability, measured concentration Mean ± SD” value is 3.03 ± 0.02 ng/mL. Moreover, in data set [2] (setting [6]), the “Long-term stability, RE” value is reported as −1.5% and the “Long-term stability, measured concentration Mean ± SD” value came out at 2.96 ± 0.24 ng/mL. Besides, in data set [2] (rat plasma, spiked 30 ng/mL), the “Short-term stability, RE” value is recorded as 0.4%; the “Short-term stability, measured concentration Mean ± SD” value came out at 30.1 ± 1.0 ng/mL; the “Freeze-thawing stability, RE” value is recorded as 0.4%; the “Freeze-thawing stability, measured concentration Mean ± SD” value was 30.1 ± 1.0 ng/mL. In data set [2] (setting [7]), the “Long-term stability, RE” value was 9.1% and the “Long-term stability, measured concentration Mean ± SD” value came to 32.7 ± 0.8 ng/mL. In data set [2] (rat plasma, spiked 350 ng/mL), the “Short-term stability, RE” value is listed as −2.7%; the “Short-term stability, measured concentration Mean ± SD” value is 341 ± 3 ng/mL; the “Freeze-thawing stability, RE” value is −0.3%; the “Freeze-thawing stability, measured concentration Mean ± SD” value was 349 ± 6 ng/mL. In data set [2] (setting [8]), the “Long-term stability, RE” value is 2.4% and the “Long-term stability, measured concentration Mean ± SD” value worked out at 359 ± 7 ng/mL. Also, the “Stability under the conditions investigated” value in data set [2] (rat plasma, three QC concentrations, room temperature 6 h, autosampler 24 h, three freeze-thaw cycles (−80°C), −80°C for 28 days, all within ±15% of nominal) is “stable”. Besides, in data set [3], the MRT is listed as 14.51 h, the time to peak (Tmax) entry is recorded as “about 4.48 h” and the t1/2 was 14.96 h. For the same molecule, the “Increase of exposure (AUC)” value in data set [4] (coadministered with itraconazole (strong CYP3A4 inhibitor)) is 24%. In data set [4] (coadministered with rifampicin (CYP3A4 inducer)), the “Decrease of exposure (AUC)” value is 78%. In addition, the “Substrate of P-gp” value with P-gp was “substrate”. The “Substrate of BCRP” value with BCRP is “substrate”. Moreover, the Metabolizing enzyme entry in the data set with cytochrome P450 (CYP3A) is on record as “principally metabolized by cytochrome P450 (CYP3A)”.
With `CC(C)=CCC[C@](C)(O)[C@H]1CC[C@]2(C)[C@@H]1[C@H](O)C[C@@H]1[C@@]3(C)CC[C@H](O[C@@H]4O[C@H](CO)[C@@H](O)[C@H](O)[C@H]4O[C@@H]4O[C@H](CO)[C@@H](O)[C@H](O)[C@H]4O)C(C)(C)[C@@H]3CC[C@]12C` [Rg3, Ginsenoside Rg3], the “Effect on the main pharmacokinetic parameters of osimertinib” value in data set [1] (Rg3 5 mg/kg oral for seven days, coadministered with osimertinib 10 mg/kg oral, rats) was “no significant effect”.

For orientation: CL/F means the apparent clearance, not corrected for the fraction that reaches the circulation. As usually defined, the half-life is the time in which the quantity being followed falls by half. The term AUC(0-inf) denotes the area under the concentration-time curve extrapolated to infinity. As a reminder, the Cmax is the maximum level reached in the sampled fluid or tissue. What is called MRT last is the average time that molecules of a dose stay in the body. What is called Tmax is the time at which the peak concentration occurs. As a reminder, the Vd/F is the volume of distribution divided by bioavailability. Broadly, the MRT is the average time that molecules of a dose stay in the body.

These data come from article PMC7785372, “An UPLC-MS/MS Method for Determination of Osimertinib in Rat Plasma: Application to Investigating the Effect of Ginsenoside Rg3 on the Pharmacokinetics of Osimertinib” (International Journal of Analytical Chemistry, 2020).
